The source of these data is paper PMC11640089, “JRM-28, a Novel HDAC2 Inhibitor, Upregulates Plasticity-Associated Proteins in Hippocampal Neurons and Enhances Morphological Plasticity via Activation of CREB: Implications for Alzheimer’s Disease” (Cells, 2024).

In this assay the target is T1, HDAC1 (Homo sapiens, UniProt Q13547).
T1 construct: purchased BPS Bioscience 50051
In words: Fluorimetric HDAC inhibition assay, HDAC1. In kind it is biochemical. The settings on record: reduced with DTT. The protocol: The inhibition of HDAC1, 2, 3, and 6 by JRM-28 was fluorometrically measured using the HDAC Fluorogenic Assay Kit (Catalog# 50034) by BPS bioscience. Purified recombinant human HDAC1 (Cat# 50051), HDAC3 (Cat# 50003), and HDAC6 (Cat# 50056) were also obtained from BPS Bioscience. The enzyme inhibition assay was performed according to the manufacturer’s protocol. […] Purified recombinant HDAC2 (supplied with the fluorogenic kit) was diluted to 6 ng/µL (5 µL/well with the supplied HDAC assay buffer). HDAC 1, 3, and 6 were also diluted to the optimized concentration (5 µL/well) with the HDAC assay buffer. The activity of JRM-28 was measured along with DTT control and DMSO as blank. After adding 5 µL of the diluted HDAC enzymes in designated wells, the 96-well plate (supplied with the kit) was incubated at 37 °C. Then, the reaction was initiated by adding 5 µL of diluted HDAC substrate to each well, followed by another incubation at 37 °C for 30 min. Next, 50 µL of the developer reagent was added to each well and incubated at room temperature for another 15 min. Finally, fluorescence was measured by a microplate absorbance spectrophotometer (PerkinElmer Enspire 2300 Multilabel Multimode Microplate Reader) with an excitation at λ = 485 nm and detection at λ = 528 nm.

T1 sequence (Q13547 whole entry): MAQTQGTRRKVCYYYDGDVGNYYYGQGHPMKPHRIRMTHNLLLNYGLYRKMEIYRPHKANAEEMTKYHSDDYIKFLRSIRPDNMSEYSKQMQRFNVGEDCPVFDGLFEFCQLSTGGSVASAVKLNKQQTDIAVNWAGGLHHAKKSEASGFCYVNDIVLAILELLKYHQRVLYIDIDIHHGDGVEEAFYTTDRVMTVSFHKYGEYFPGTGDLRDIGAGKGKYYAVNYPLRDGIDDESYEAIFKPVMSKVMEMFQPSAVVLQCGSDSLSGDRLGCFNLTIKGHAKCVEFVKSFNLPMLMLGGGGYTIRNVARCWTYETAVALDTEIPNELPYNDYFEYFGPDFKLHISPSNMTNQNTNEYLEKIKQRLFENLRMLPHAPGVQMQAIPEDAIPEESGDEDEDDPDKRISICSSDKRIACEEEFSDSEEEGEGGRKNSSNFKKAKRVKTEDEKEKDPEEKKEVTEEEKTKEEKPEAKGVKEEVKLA

`CN(C(=O)CC(O)/C=C/CCSS(=O)(=O)CC/C=C/C(O)CC(=O)N(C)c1ccccc1)c1ccccc1` (stereo not drawn) [JRM-28, S-((E)-5-hydroxy-7-(methyl(phenyl)amino)-7-oxohept-3-en-1-yl) (E)-5-hydroxy-7-(methyl(phenyl)amino)-7-oxohept-3-ene-1-sulfonothioate] displayed an IC50 of 351 nM. Further, under “listed as JRM-28 (JRM-28a+28b)”, the “Hill coefficient HDAC1 (fluorimetric)” value is given as −4.582.
